# Literature values in patent US20240360088A1, “WATER-SOLUBLE NERVE DYES FOR IN VIVO NERVE-SPECIFIC IMAGING” (Oregon Health & Science University, priority 2021, published 2024).
# Test system: rodent nerves
# Conditions: for nerve specificity: direct and systemic administration, preclinical
Structure (SMILES),nerve specificity,nerve-specific signal (systemic administration),fluorescence signal for real time imaging (co-solvent formulation as vehicle for intravenous injection)
CC/N=c1/cc2oc3cc(NCC)c(C)cc3nc-2cc1C [Oxazine 4],high nerve specificity,nerve-specific signal following systemic administration in all rodent nerves,
"CCNc1cc2oc3cc(=[N+](CC)CC)ccc-3nc2cc1C [Comparative Example No. 1, 3-(diethyl-14-azaneylidene)-N-ethyl-8-methyl-3H-phenoxazin-7-amine]",high nerve specificity,,adequate fluorescence signal
